In patent US10246712B2, “Genetic or pharmacological reduction of PERK enhances cortical- and hippocampus-dependent cognitive function” (Carmel-Haifa University Economic Corp. Ltd, priority 2015, dated 2019):

Test system: p-eIF2α
Test: Immunoblot of p-eIF2α levels in rat insular cortex (IC)
Type: in vivo
Conditions: 1 μl, 100 nM stereotactic injection to the IC, compared to vehicle; n=15; data not shown
Protocol: For virus infusions, rats were first anesthetized with Ketamine (120 mg/kg) and Xylazine (6 mg/kg) and placed into a stereotactic frame (Steolting Europe, Dublin—Ireland) (Using a 32-gauge stainless steel injector attached to a stereotactic infusion pump, rats received 1 μl of lentivirus encoding PERK shRNA or lentivirus harboring a scrambled sequence over 10 min into the insular cortex (anteroposterior, +1.2 mm relative to bregma; lateral, ±5.5 mm; ventral, −6.0 mm) according to the atlas of Paxinos, G. & Watson, C. (2006). The injector was lets in place for 5 min before and after infusion to minimize fluid retraction. The rats were allowed at least 7 days to recover from the surgery before any behavior experiments were conducted.
The rats were cannulated as described in Barki-Harrington et al. (2009). Briefly, the rats were anesthetized by administration of equithesin (0.3 ml/100 g), comprising 2.12% (w/v) MgSO4, 10% (v/v) ethanol, 39.1% (v/v) propyleneglycol, 0.98% (w/v) sodium pentobarbital, and 4.2% (w/v) chloral hydrate. […]
At the end of the behavioral procedure, the brains were removed, and snap-frozen in liquid nitrogen. […] Protein content was determined with the BCA Protein Assay Kit (GE Healthcare). […]

## Cn1cc(-c2ccc3c(c2)CCN3C(=O)Cc2cccc(C(F)(F)F)c2)c2c(N)ncnc21 [GSK2606414, 7-methyl-5-(1-{[3-(trifluoromethyl)phenyl]acetyl}-2,3-dihydro-1H-indol-5-yl)-7H-pyrrolo[2,3-d]pyrimidin-4-amine]
  reduction in p-eIF2α levels: 40%
